What was measured:
Assay type in all cases: cell-based
TLR7 [1] = molecular target: T1, TLR7 (Homo sapiens, UniProt Q9NYK1); experiment: TLR7 reporter gene assay, antagonism (gardiquimod as agonist)
T1 construct: expressed in transfected cells; host or cells: HEK293 (HEK-Blue-7 cells)
T1 sequence (Q9NYK1 27-1049): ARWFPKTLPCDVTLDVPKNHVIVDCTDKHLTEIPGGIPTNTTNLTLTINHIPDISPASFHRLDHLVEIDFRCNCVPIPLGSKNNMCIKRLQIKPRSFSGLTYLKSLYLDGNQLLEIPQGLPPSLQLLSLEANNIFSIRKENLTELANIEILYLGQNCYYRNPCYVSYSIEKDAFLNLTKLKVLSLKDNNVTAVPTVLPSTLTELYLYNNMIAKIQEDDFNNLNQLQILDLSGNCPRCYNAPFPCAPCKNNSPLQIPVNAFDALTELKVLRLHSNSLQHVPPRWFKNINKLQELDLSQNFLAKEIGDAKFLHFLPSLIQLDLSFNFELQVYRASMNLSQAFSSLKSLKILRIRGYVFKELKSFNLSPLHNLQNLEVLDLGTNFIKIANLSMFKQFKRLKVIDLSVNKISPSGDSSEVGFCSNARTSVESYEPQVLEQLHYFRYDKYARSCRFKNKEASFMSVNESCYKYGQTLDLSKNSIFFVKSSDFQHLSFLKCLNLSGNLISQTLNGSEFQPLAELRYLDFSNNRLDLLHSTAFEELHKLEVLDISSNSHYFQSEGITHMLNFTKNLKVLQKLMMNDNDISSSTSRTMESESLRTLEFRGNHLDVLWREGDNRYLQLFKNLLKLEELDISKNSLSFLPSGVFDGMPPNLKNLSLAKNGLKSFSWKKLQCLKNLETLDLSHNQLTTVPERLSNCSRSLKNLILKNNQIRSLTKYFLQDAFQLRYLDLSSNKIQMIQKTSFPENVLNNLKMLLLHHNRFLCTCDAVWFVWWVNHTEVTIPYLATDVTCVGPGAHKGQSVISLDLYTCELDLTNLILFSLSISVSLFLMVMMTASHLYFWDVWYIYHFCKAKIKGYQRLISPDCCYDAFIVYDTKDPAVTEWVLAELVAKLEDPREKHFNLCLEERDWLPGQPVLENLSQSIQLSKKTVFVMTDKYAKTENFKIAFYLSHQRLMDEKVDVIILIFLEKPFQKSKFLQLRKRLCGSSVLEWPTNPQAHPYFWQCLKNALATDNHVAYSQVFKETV
Excerpt: (§1) The induction of NF-κB was quantified using HEK-Blue-3, HEK-Blue-7 and HEK-Blue-8 cells as previously described by us.^8,24,51 HEK293 cells were stably transfected with human TLR3 (or human TLR7 or human TLR8), MD2, and secreted alkaline phosphatase (sAP), and were maintained in HEK-Blue™ Selection medium containing zeocin and normocin. Stable expression of secreted alkaline phosphatase (sAP) under control of NF-κB/AP-1 promoters is inducible by the TLR3 (or TLR7 or TLR8) agonists, and extracellular sAP in the supernatant is proportional to NF-κB induction. HEK-Blue cells were incubated at a density of ˜10^5 cells/ml in a volume of 80 μl/well, in 384-well, flat-bottomed, cell culture-treated microtiter plates until confluency was achieved, and subsequently graded concentrations of stimuli. sAP was assayed spectrophotometrically using an alkaline phosphatase-specific chromogen (present in HEK-detection medium as supplied by the vendor) at 620 nm.
(§2) Antagonism assays were done as described by us earlier^73 using the following agonists at a constant concentration: TLR3 Poly(I:C) (10 ng/mL); TLR7: gardiquimod (1 μg/mL); TLR8: CL075 (1 μg/mL) mixed with graded concentrations of the test compounds.

TLR8 [2] = molecular target: T2, TLR8 (Homo sapiens, UniProt Q9NR97); experiment: TLR8 reporter gene assay, antagonism (CL075 as agonist)
T2 construct: expressed in transfected cells; host or cells: HEK293 (HEK-Blue-8 cells)
T2 sequence (Q9NR97 27-1041): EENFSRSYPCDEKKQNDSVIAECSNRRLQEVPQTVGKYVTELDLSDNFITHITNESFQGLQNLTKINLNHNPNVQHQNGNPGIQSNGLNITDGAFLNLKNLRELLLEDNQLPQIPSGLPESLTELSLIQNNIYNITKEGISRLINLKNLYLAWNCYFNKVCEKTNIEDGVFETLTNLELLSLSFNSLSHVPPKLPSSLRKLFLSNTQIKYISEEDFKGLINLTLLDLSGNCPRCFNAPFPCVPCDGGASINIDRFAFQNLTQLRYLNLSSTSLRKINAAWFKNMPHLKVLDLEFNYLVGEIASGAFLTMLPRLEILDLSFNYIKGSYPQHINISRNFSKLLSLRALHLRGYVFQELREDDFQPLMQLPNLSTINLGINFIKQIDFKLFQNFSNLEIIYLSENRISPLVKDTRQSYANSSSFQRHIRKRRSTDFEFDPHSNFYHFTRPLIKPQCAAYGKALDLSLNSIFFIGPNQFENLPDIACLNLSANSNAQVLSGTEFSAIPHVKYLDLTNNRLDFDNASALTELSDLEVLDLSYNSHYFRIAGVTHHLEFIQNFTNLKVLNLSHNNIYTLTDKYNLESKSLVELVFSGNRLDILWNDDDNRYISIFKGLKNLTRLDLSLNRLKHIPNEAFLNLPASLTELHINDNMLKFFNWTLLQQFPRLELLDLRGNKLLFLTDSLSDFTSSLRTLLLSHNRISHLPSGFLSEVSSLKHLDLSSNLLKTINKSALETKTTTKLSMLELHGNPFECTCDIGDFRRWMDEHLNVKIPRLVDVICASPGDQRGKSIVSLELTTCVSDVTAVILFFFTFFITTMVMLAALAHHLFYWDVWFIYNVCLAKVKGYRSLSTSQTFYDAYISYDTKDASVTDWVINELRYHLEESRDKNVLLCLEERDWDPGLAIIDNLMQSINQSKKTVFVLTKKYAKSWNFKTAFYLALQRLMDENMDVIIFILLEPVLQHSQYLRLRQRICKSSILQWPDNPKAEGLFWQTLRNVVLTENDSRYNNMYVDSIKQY
Excerpt: as §1, §2

[3] = tested on: TLR7 and TLR8-induced cytokine and chemokine release; experiment: Inhibition of TLR7- and TLR8-mediated cytokine and chemokine production in human PBMCs; conditions: hPBMCs
Method: FIGS. 22A-[…] illustrate inhibition of TLR7-mediated (FIGS. 22A-22D) and TLR8-mediated (FIGS. 22E-[…]) proinflammatory cytokine production in human peripheral blood mononuclear cells by chloroquine or 47a. Proinflammatory cytokines were assayed by cytokine bead array methods after incubation of hPBMCs with graded concentrations of the test compound for 12 h in the presence of 10 μg/ml of either CL075 (TLR8 agonist) or gardiquimod (TLR7 agonist). FIGS. 23A-23D illustrate inhibition of TLR7-mediated (FIGS. 23A-23B) and TLR8-mediated (FIGS. 23C-3D) chemokine production in human peripheral blood mononuclear cells by chloroquine or 47a. Chemokines were assayed by cytokine bead array methods after incubation of hPBMCs with graded concentrations of the test compound for 12 h in the presence of 10 μg/ml of either CL075 (TLR8 agonist) or gardiquimod (TLR7 agonist). Aliquots (10^6 cells in 100 μL) of hPBMCs isolated from blood obtained from healthy human donors after informed consent by conventional Ficoll-Hypaque gradient centrifugation were stimulated for 12 h with graded concentrations of test compounds. The supernatant was isolated by centrifugation, diluted 1:20, and cytokines and chemokines were assayed in triplicate using analyte-specific cytokine/chemokine bead array assays as reported by us previously.^74

TLR7 [4] = molecular target: T1, TLR7; experiment: Schild plot analysis of inhibition of TLR7-induced activation
Method: (§3) Experiments were performed in checker-board format, using a liquid handler, in 384-well plates which permitted the concentrations of both agonist and antagonist to be varied simultaneously along the two axes of the plate. Either imidazoquinoline (TLR7-specific agonist) or CL075 (TLR8-specific agonist) was used at a starting concentration of 20 μg/mL, and were two-fold diluted serially (along the rows). Next, 47a or chloroquine was two-fold diluted serially in HEK detection medium (along columns). Reporter cells were then added, incubated, and NF-κB activation measured as described in the text. A and A′ (Y-axis) are defined respectively as the EC50 value in the absence of antagonist, and the EC50 values in the presence of varying concentrations of antagonist.

TLR8 [5] = molecular target: T2, TLR8; experiment: Schild plot analysis of inhibition of TLR8-induced activation
Method: as §3

TLR7 antagonistic activity (in words) (TLR7 [1]): potent antagonistic activity
IC50 (TLR7 [1]; agonist gardiquimod 1 μg/mL, ND = not detected): 3.1 µM
TLR8 antagonistic activity (in words) (TLR8 [2]): potent antagonistic activity
IC50 (TLR8 [2]; agonist CL075 1 μg/mL, ND = not detected): 3.2 µM
IC50 ([3]; Homo sapiens, PBMC, 12 h, 10 μg/ml CL075 or gardiquimod): 0.05 to 0.3 µM
Schild plot slope, TLR7 inhibition (TLR7 [4]): 1.12
Schild plot slope, TLR8 inhibition (TLR8 [5]): 0.51
SMILES: Nc1nc2ccccc2c2c1nc(CCCc1nc3c(N)nc4ccccc4c3n1Cc1ccccc1)n2Cc1ccccc1 [Compound 47a, 2,2′-(propane-1,3-diyl)bis(1-benzyl-1H-imidazo[4,5-c]quinolin-4-amine)]
Inhibition of TNF-α and IL-1β production (in words) [3]: potently inhibits

Reference: patent publication US10208037B2, “Toll-like receptor-7 and -8 modulatory 1H imidazoquinoline derived compounds” (The University of Kansas, priority 2011, dated 2019)
